In patent US12503717B2, “Systems and methods for modeling disease and assessing adverse side effects of therapeutics therefor” (NOVOHEART INTERNATIONAL LIMITED, priority 2016, dated 2025):
Marks after values point to notes of the source that are not given here.

Tests used:
[1] = system: hvCAS (human ventricular cardiac anisotropic sheet of HES2 hESC-derived ventricular cardiomyocytes); assay type: cell-based
Procedure: hvCAS preparations were loaded with di-8-ANEPPS (10 μM; D-3167; Molecular Probes)/[…] (0.04%; P-3000MP; Life Technologies) for 1 hour at 37° C. in DMEM-F12, followed by incubation at room temperature (RT) for 15 minutes in Blebbistatin (50 μM, B0560; Sigma-Aldrich) in Tyrode's solution. Tyrode's solution consists of 140 mM NaCl, 5 mM KCl, 1 mM MgCl2, 1 mM CaCl2, 10 mM D-glucose, and 10 mM HEPES at pH 7.4 to minimize potential interference of optical mapping signals by motion artifacts. The dye-loaded hvCAS preparations were bathed in Tyrode's solution which was maintained at 35-37° C. using a culture dish incubator (Warners Instruments). High-resolution optical mapping of AP and conduction properties was performed using a MiCam Ultima (SciMedia, CA, USA) with a 1× objective and a 1× condensing lens to yield a 10 mm by 10 mm field of view. Fluorescence imaging was performed using a halogen light filtered by a 515±35 nm band-pass excitation filter and a 590 nm high-pass emission filter. Data were collected at a sampling rate of 200 Hz and analyzed using BVAna software (SciMedia). A programmable stimulator (Master8; AMPI, Israel) was enrolled to deliver pacing stimuli (10V, 10-ms pulse duration) via a unipolar point-stimulation electrode (Harvard Apparatus, MA, USA) placed perpendicular to the hvCAS surface.
A point stimulation was applied at the center of an […] preparation following the schematic illustration (FIG. 2E) and steady state pacing (10 ms, 10 V) was first applied from 0.5 Hz through to 3 Hz (i.e., 30 to 180 bpm) with 0.5 Hz increments, unless there was a loss of 1:1 capture using Master-8 (AMPI, Israel). A standard (S1-S2) programmed electrical stimulation (PES) protocol was then introduced to further evaluate arrhythmogenicity, similar to what has been previously described^[15]. A train of eight S1 stimuli was delivered at 1.5 Hz followed by a premature extra stimulus (S2) with S1-S2 interval initiated at 550 ms and consecutively shortened in steps of 50 ms until capture failed.
A set of selection criteria was strictly followed before an hvCAS was employed for subsequent drug testing procedures to ensure fair comparison. In particular, the selection criteria included (1) observation of a consistent propagation signal across the whole field of view, (2) a maximum capture frequency of at least 1.5 Hz and (3) no re-entry at baseline. Drugs were then added at three cumulative doses to cover the therapeutic range and HERG IC50 was determined using a conventional technique known in the art.^[33] All drugs were purchased from Sigma-aldrich (MO, USA). […] Steady-state pacing and PES were repeated, as described above, for each dose unless re-entry occurred before the highest dose was applied. Action potential parameters and conduction properties were subsequently analyzed using Clampfit, with APD90 defined as the time from the peak to 90% repolarization. Data are individually presented as mean±SD and statistically compared using Student's t-test with p<0.05 considered statistically significant.

[2] = cited from earlier work

| Chirality of Re-entry: Anticlock-wise ([1]; human, pH 7.4) | Chirality of Re-entry: Clock-wise ([1]; human, pH 7.4) | Chirality of Re-entry: Figure-of-eight ([1]; human, pH 7.4) | Chirality of Re-entry: Multi-origin ([1]; human, pH 7.4) | Frequency of re-entries (Mean ± SD) ([1]; human, pH 7.4) | No. of Re-entry, 1st dose ([1]; human, pH 7.4) | No. of Re-entry, 2nd dose ([1]; human, pH 7.4) | No. of Re-entry, 3rd dose ([1]; human, pH 7.4) | effect on AP at relatively low doses [1] | fold increase in risk compared to the vehicle control (DMSO) ([1]; human, 300 nM, pH 7.4) [fold] | reentrant events at relatively low doses ([1]; human, pH 7.4) | SMILES | arrhythmic risk compared to the respective vehicle control (FIG. 3H) [1] | fold increase in incidence rate or arrhythmic risk normalized to corresponding vehicle control ([1]; human, pH 7.4) [fold] | risk of arrhythmia or sudden death during hospitalization ([2]; nested case-control study) | serum concentration associated with clinical TdP ([2]; serum) [nM] | clinical QT prolongation / TdP liability ([2]; human, in vivo) |
| --- | --- | --- | --- | --- | --- | --- | --- | --- | --- | --- | --- | --- | --- | --- | --- | --- |
| 3 | 1 | 1 | 0 | 1.92 ± 0.37 | 4^[a] | 1^[a] | 0 |  |  |  | O=C(NCC1CCCCN1)c1cc(OCC(F)(F)F)ccc1OCC(F)(F)F (stereo not shown) [FLE, flecainide] | elevated risk |  |  |  |  |
| 3 | 0 | 0 | 0 | 1.53 ± 0.42 | 1^[a] | 2 | 0 |  |  |  | CCN(CC)CCNC(=O)c1ccc(N)cc1 [PROC, procainamide] | elevated risk | 2.3 |  |  |  |
| 3 | 1 | 0 | 0 | 1.04 ± 0.31 | 0 | 0 | 4 | no apparent effects on AP | 1.2 | 0 of 16 | CC(C)(C)c1ccc(C(O)CCCN2CCC(C(O)(c3ccccc3)c3ccccc3)CC2)cc1 (stereo not shown) [TERF, terfenadine] | elevated risk |  |  | 120 |  |
| 0 | 1 | 1 | 0 | 1.34 ± 0.52 | 0 | 1^[a] | 1 |  |  |  | Cc1cccc(C)c1NC(=O)C(C)N (stereo not shown) [TOC, tocainide] | lower risk | 0.7 |  |  |  |

Continued, molecule first:

| SMILES | Chirality of Re-entry: Anticlock-wise ([1]; human, pH 7.4) | Chirality of Re-entry: Clock-wise ([1]; human, pH 7.4) | Chirality of Re-entry: Figure-of-eight ([1]; human, pH 7.4) | Chirality of Re-entry: Multi-origin ([1]; human, pH 7.4) | Frequency of re-entries (Mean ± SD) ([1]; human, pH 7.4) | No. of Re-entry, 1st dose ([1]; human, pH 7.4) | No. of Re-entry, 2nd dose ([1]; human, pH 7.4) | No. of Re-entry, 3rd dose ([1]; human, pH 7.4) | effect on AP at relatively low doses [1] | fold increase in risk compared to the vehicle control (DMSO) ([1]; human, 300 nM, pH 7.4) [fold] | reentrant events at relatively low doses ([1]; human, pH 7.4) | arrhythmic risk compared to the respective vehicle control (FIG. 3H) [1] | fold increase in incidence rate or arrhythmic risk normalized to corresponding vehicle control ([1]; human, pH 7.4) [fold] | risk of arrhythmia or sudden death during hospitalization ([2]; nested case-control study) | serum concentration associated with clinical TdP ([2]; serum) [nM] | clinical QT prolongation / TdP liability ([2]; human, in vivo) |
| --- | --- | --- | --- | --- | --- | --- | --- | --- | --- | --- | --- | --- | --- | --- | --- | --- |
| CC(=O)Oc1ccccc1C(=O)O [ASP, aspirin] |  |  |  |  |  |  |  |  |  |  |  | lower risk |  |  |  |  |
| COc1cc(N)c(Cl)cc1C(=O)NC1CCN(CCCOc2ccc(F)cc2)CC1OC (stereo not shown) [CISA, cisapride] | 5 | 3 | 0 | 1 | 1.18 ± 0.40 | 2^[a] | 4^[a] | 3 |  |  |  | elevated risk | 2.7 | doubling or tripling |  |  |
| COc1ccccc1OCC(O)CN1CCN(CC(=O)Nc2c(C)cccc2C)CC1 (stereo not shown) [ranolazine] |  |  |  |  |  |  |  |  |  |  |  |  |  |  |  | reasonably safe from causing TdP |
